Values of other authors, collected in patent publication US20020110580A1, “Nutritional composition for improving the efficacy of a lipase inhibitor” (priority 2000, published 2002).

B1: Cholecystokinin (peptide, UniProt P06307 21-115, looked up)
Cholecystokinin: QPVPPADPAGSGLQRAEEAPRRQLRVSQRTDGESRAHLGALLARYIQQARKAPSGRMSIVKNLQNLDPSHRISDRDYMGWMDFGRRSAEEYEYPS
modifications: Cholecystokinin

Columns and labels:
[1] = individuals receiving CCK

Molecule	gastric emptying of both the solid and fat phases of a mixed meal	CCK release (mixed meal)	reduction in caloric intake [1]
CCCCCCCCCCC[C@@H](C[C@@H]1OC(=O)[C@H]1CCCCCC)OC(=O)[C@H](CC(C)C)NC=O [Orlistat, tetrahydrolipstatin]	accelerated	decreased	
B1			16-22%
